Source: US12503432B2, “Ionizable lipids for nucleic acid delivery” (Global Life Sciences Solutions Canada ULC, priority 2019, dated 2025)

Key:
primary human T cells = test: GFP mRNA LNP transfection of isolated primary human T cells, flow cytometry; type: cell-based; parameters: key to GFP Protein expression: Human T cell: *: The number of asterix symbols indicates protein expression levels interpreted by the inventors from quantitative data; **: The number of asterix symbols indicates protein expression levels interpreted by the inventors from quantitative data; ***: The number of asterix symbols indicates protein expression levels interpreted by the inventors from quantitative data; ****: The number of asterix symbols indicates protein expression levels interpreted by the inventors from quantitative data; *****: The number of asterix symbols indicates protein expression levels interpreted by the inventors from quantitative data; *******: The number of asterix symbols indicates protein expression levels interpreted by the inventors from quantitative data; details: for GFP Protein expression: Human T cell: qualitative grade interpreted from quantitative data; for transfecting T cells in vitro, Mean Fluorescence Intensity (MFI): dose 500 ng, MC3 as control, FIG. 3
Description: Downstream processing and analysis of treated T cells were done with flow cytometry and ELISA. Reagents were from Stemcell Technologies, Vancouver, Canada unless otherwise stated. […] At 48H following LNP-mediated mRNA exposure, the treated T cells were harvested by transferring the cell suspensions to pre-labeled 1.5 mL tubes and centrifuged 300×G at 4 degrees C. for 10 minutes. Supernatant was removed and the pellet resuspended in PBS. An amount of 0.5 ul of BD Horizon™ Fixable Viability Stain 575V™ (BD Biosciences), was added, and the mixture incubated in the dark for 10 minutes at RT. This stain binds to intracellular amines of a permeable plasma cell membrane of a necrotic cell and can be used to differentiate a viable cell and a non-viable cell during a flow cytometry assay.
The cells were centrifuged again as before, then washed twice with 1 mL of Stain buffer (BSA, BD Pharminigen), and the washed pellet was placed in 100 μl BSA. The following antibodies were added to each tube of treated cells in 2 μl volumes: CD25, CD8, CD4, (PerCP-Cy™ 5.5 Mouse Anti Human CD25, BV786 Mouse Anti-Human CD8 Clone RPA-T8, and APC-Cy™7 Mouse Anti-Human CD4 Clone SK3, all from BD Pharmingen™) with the exception of the controls: in the eGFP only sample and viability control, no antibody was added. In the single stain compensation tubes, only one antibody per tube was added.
The tubes were incubated at 4 degrees C. for 30 min, whereupon 400 μl of stain buffer (BSA) was added, and the cells were centrifuged again. Cells were washed once with 1 mL of stain buffer and spun down again. Cell pellets were resuspended in 1 mL of stain buffer and added to pre-labeled flow tubes with cell strainer caps (Corning Falcon).
After transfection, flow cytometry was used to generate eGFP or EPO expression levels as well as MFI values for the studies. […]
After transfection, flow cytometry was used to general GFP expression levels as well as MFI values for the studies.
Ionizable lipids of the invention, and MC3, were compared in a composition of CT10 at an N/P ratio of 10 for their ability to induce transfection as measured by MFI of labeled mRNA in T cells (as measured by flow cytometry).
T Cells were prepared and treated as previously described using negative selection and the triple activation protocol.
In order to expose the isolated and activated T cells (Day 0) to the formulated mRNA, […] media, with 1 μg/mL of Recombinant Human ApoE4 (“ApoE”) (Peprotech Inc., Montreal, Canada).
The dose of mRNA LNP was calculated based upon Ribogreen™ assay results. T cells were counted through Trypan blue (Sigma) exclusion and diluted to 500,000 cells/mL. Briefly, in a 12 well plate, 1 mL was aliquoted into each well. ApoE was added to a final concentration of 1 μg/mL in each well. Based upon the calibration, the required amount of mRNA LNP was added (day 3 to 7), and the plate incubated for 48 hours.

C57BL/6 mice = test: In vivo delivery of EPO-encoded mRNA LNP via intravenous route, serum EPO ELISA; parameters: key to EPO Protein expression: IV in mice: *: The number of asterix symbols indicates protein expression levels interpreted by the inventors from quantitative data; **: The number of asterix symbols indicates protein expression levels interpreted by the inventors from quantitative data; ***: The number of asterix symbols indicates protein expression levels interpreted by the inventors from quantitative data; ****: The number of asterix symbols indicates protein expression levels interpreted by the inventors from quantitative data; *****: The number of asterix symbols indicates protein expression levels interpreted by the inventors from quantitative data; *******: The number of asterix symbols indicates protein expression levels interpreted by the inventors from quantitative data; details: for EPO Protein expression: IV in mice: qualitative grade interpreted from quantitative data
Excerpt: Lipid Nanoparticles with the composition IL/DSPC/Cholesterol/PEG-DMG2000 (LM 02—see Table 3) were used to encapsulate recombinant human erythropoietin (EPO) encoded mRNA with 5-moU modifications [TriLink CleanCapo 5-moU EPO mRNA L7201]. To create the LNP, lipid mix in ethanol was microfluidically mixed with a low PH buffered solution of 5-moU EPO mRNA mixer at an N/P ratio of 6 using a NanoAssemblr® Ignite™ microfluidic mixer. The microfluidically mixed particles were downstream processed using Amicon® ultra 15 10 kDa MWCO units (EMD Millipore) filtration technique. The RNA loaded lipid particles were then characterized for size, PDI and Encapsulation Efficiency (EE). Size and PDI were measured using dynamic light scattering techniques described above, and nucleic acid encapsulation efficiency was calculated using a Quant-iT RiboGreen RNA assay as described supra, modified to use hEPO mNA as the standard instead if the standard RNA in the kit. The hydrodynamic diameter of these mRNA-LNPs was ˜70 nm with a PDI in the range of 0.02 to 0.1 and an encapsulation efficiency of ˜97.8%.
Animals were handled according to the Institutional Animal Care and Use Committee ethics protocols. For experiments, 6-8 week old C57BL/6 mice were purchased from Envigo (South Kent, WA, USA). For in vivo activity, female C57BL/6 mice were treated intravenously with EPO mRNA LNPs at specified dosages of 0.5-3 mg/Kg. Samples of 50-75 μL of blood were collected 6 h post administration via saphenous vein, and at regular time intervals of 24 h or 48 h.
After harvest, blood was immediately prepared to produce serum samples using standard techniques, and stored at −80 degrees C. Briefly, after collection, the blood was allowed to clot at room temperature for 15-30 minutes. The clot was removed by centrifuging the tubes at 1000-2000×g for 10 min at 4 degrees Celsius. The clear golden-yellow color supernatant was carefully removed and transferred to sterile screw-capped clear polypropylene tubes on ice. The serum was then stored, if necessary, at −80° C. until analysis.
Samples were thawed, then analyzed at appropriate dilutions for EPO protein expression and for cytokine/chemokine levels. The total serum EPO levels were evaluated using Quantikine® IVD EPO ELISA kit (Bio-Techne, Minneapolis, MN, USA).
Following i.v administration of a 0.5 mg/Kg dose of recombinant human EPO-encoded mRNA LNPs containing ionizable lipid MC3, PNI 121 or PNI 123 using the LM02 composition at N/P 6, EPO expression levels at 6 h (upper, FIG. 6) and at 24 h (lower, FIG. 6) in C56BL/6 mice were examined; hEPO protein was measured using Quantikine® IVD® ELISA Human Erythropoietin Immunoassay protocol.

Compound	GFP Protein expression: Human T cell (primary human T cells)	EPO Protein expression: IV in mice (C57BL/6 mice)	other results
CC/C=C\CC1C(CC(=O)OCC(COCCCCCCCC/C=C\C/C=C\CCCCC)OCCCCCCCC/C=C\C/C=C\CCCCC)CCC1OC(=O)CCCN(CC)CC (stereo not shown) [PNI 542]	*****	***	
CCCCCCCCC1CC1CCCCCCCCOCC(COC(=O)CC1CCC(OC(=O)CCN(C)C)C1CC1CC1CC)OCCCCCCCCC1CC1CCCCCCCC (stereo not shown) [PNI 546]	*	*	
CC/C=C\CC1C(CC(=O)OCCC(CCCCCCCC)OC(=O)C(CCCCCC)CCCCCCCC)CCC1OC(=O)CCN(C)C (stereo not shown) [PNI 554]	***	***	
CC/C=C\CC1C(CC(=O)OCC(COCCCCCCCC/C=C\C/C=C\CCCCC)OCCCCCCCC/C=C\C/C=C\CCCCC)CCC1OC(=O)C1(C)CCN(C)CC1 (stereo not shown) [PNI 123]	***	***	delivering hEPO and expressing hEPO in vivo (C57BL/6 mice; i.v., 1 and 3 mg/Kg, LM02, N/P 6, 6 h and 24 h, FIG. 7): performed very well against MC3 LNP
CC/C=C\CC1C(CC(=O)OCC(COCCCCCCCC/C=C\C/C=C\CCCCC)OCCCCCCCC/C=C\C/C=C\CCCCC)CCC1OC(=O)CC1CCCCN1C (stereo not shown) [PNI 559]	**	***	
CC/C=C\CC1C(CC(=O)OC(CCCCCCCCC2CC2CCCCCCCC)CCCCCCCCC2CC2CCCCCCCC)CCC1OC(=O)CCCN(C)C (stereo not shown) [PNI 516]	*****	****	serum rhEPO expression level (C57BL/6 mice; i.v., 0.5 mg/Kg, FIG. 8): on par with MC3
CC/C=C\CC1C(CC(=O)OCC(COCCCCCCCCC2CC2CCCCCCCC)OCCCCCCCCC2CC2CCCCCCCC)CCC1OC(=O)CCN(C)C (stereo not shown) [PNI 544]	***	***	
CC/C=C\CC1C(CC(=O)OCCC(CCCCCCCC)OC(=O)C(CCCCCC)CCCCCCCC)CCC1OC(=O)C1(C)CCN(C)CC1 (stereo not shown) [PNI 565]	*******	***	transfecting T cells in vitro, Mean Fluorescence Intensity (MFI) (primary human T cells; CT10 composition): substantially as good or better than MC3
CC/C=C\CC1C(CC(=O)OCC(COCCCCCCCC/C=C\C/C=C\CCCCC)OCCCCCCCC/C=C\C/C=C\CCCCC)CCC1OC(=O)C1CCN(C)CC1 (stereo not shown) [PNI 132]	*******	***	transfecting T cells in vitro, Mean Fluorescence Intensity (MFI) (primary human T cells; CT10 composition): substantially as good or better than MC3
CC/C=C\CC1C(CC(=O)OCC(COCCCCCCCC/C=C\C/C=C\CCCCC)OCCCCCCCC/C=C\C/C=C\CCCCC)CCC1OC(=O)CCCN(C)C (stereo not shown) [PNI 101]	****	**	transfection efficiency in T cells from different donors (primary human T cells; CT10, N/P 10, 48 h after treatment, six donors, FIG. 2): greater than those containing MC3 in six tested donors; Cell viability (primary human T cells; CT10, N/P 10, compared to untreated cells (control)): unaffected; transfection efficiency (primary human T cells; CT10 composition, N/P 10, LNP 7 days post activation, FIG. 1): greater transfection efficiency than either DODMA or MC3
CC/C=C\CC1C(CC(=O)OCC(COCCCCCCCC/C=C\C/C=C\CCCCC)OCCCCCCCC/C=C\C/C=C\CCCCC)CCC1OC(=O)CC1CCN(C)C1 (stereo not shown) [PNI 557]	***	**	
CC/C=C\CC1C(CC(=O)OC(CCCCCCCCC2CC2CCCCCCCC)CCCCCCCCC2CC2CCCCCCCC)CCC1OC(=O)C1(C)CCN(C)CC1 (stereo not shown) [PNI 560]	****	****	
CC/C=C\CC1C(CC(=O)OC(CCCCCCCCC2CC2CCCCCCCC)CCCCCCCCC2CC2CCCCCCCC)CCC1OC(=O)CCN(C)C (stereo not shown) [PNI 549]	**	***	
CC/C=C\CC1C(CC(=O)OCC(COCCCCCCCC/C=C\C/C=C\CCCCC)OCCCCCCCC/C=C\C/C=C\CCCCC)CCC1OC(=O)CCCN1CCCC1 (stereo not shown) [PNI 558]	*	***	
CCCCCCCCC1CC1CCCCCCCCOCC(COC(=O)CC1CCC(OC(=O)CCCN(C)C)C1CC1CC1CC)OCCCCCCCCC1CC1CCCCCCCC (stereo not shown) [PNI 545]	*****	***	
